The text below walks through data of ChEMBL document CHEMBL1155437, “Anti-infective discorhabdins from a deep-water alaskan sponge of the genus Latrunculia” (J Nat Prod, 2010).

For series [1], the system named is Mycobacterium intracellulare. As to the kind of experiment: Antibacterial activity against Mycobacterium intracellular by after 4 days alamar blue assay. In kind it is functional, organism-based.
A further series has as its system Staphylococcus aureus. As to the kind of experiment: Antibacterial activity against methicillin-resistant Staphylococcus aureus by modified NCCLS method. Type of series: functional, organism-based.
The next series concerns Hepatitis C virus. Briefly: Antiviral activity against HCV infected in human HuH7 clone B cells assessed as inhibition of viral RNA replication after 5 days by RT-PCR based replicon assay relative to control. The conditions noted are these: Huh-7, 120 h. In kind it is functional, Hepacivirus hominis. (In general: In antiviral work, replicon cells carry a viral genome segment that copies itself.)

Series [2] has as its system Plasmodium falciparum. Briefly: Antimalarial activity against chloroquine-resistant Plasmodium falciparum W2 assessed as parasite LDH activity after 72 hrs by malstat reagent method. Type of series: functional, organism-based. The note with it: W2, 72 h.
The test system of series [3] is Mus musculus. As to the kind of experiment: Toxicity in Plasmodium berghei infected mice (Mus musculus) assessed as mortality at 10 mg/kg, perorally or subcutaneously QD for 2 days measured on day 3. In kind it is organism-based. Also on record: dose 10 mg/kg, route oral. The conditions noted are these: in vivo, po, 48 h.
The test system of series [4] is Mus musculus. Briefly: Toxicity in Plasmodium berghei infected mice (Mus musculus) assessed as loss of weight at 10 mg/kg, perorally or subcutaneously QD on day 1. The conditions noted are these: in vivo, po. In kind it is organism-based. Set-up: dose 10 mg/kg, route oral.
The subject of series [5] is Mycobacterium tuberculosis. Briefly: Antituberculosis activity against Mycobacterium tuberculosis H37Rv after 4 days by alamar blue assay. Type of series: functional, organism-based. The note with it: 96 h. A general note: The colour change of resazurin is a common sign of viable cells or microbes.
Series [6] concerns Mus musculus. Briefly: Toxicity in Plasmodium berghei infected mice (Mus musculus) assessed as mortality at 10 mg/kg, perorally or subcutaneously QD for 2 days measured on day 4. Type of series: organism-based. Also on record: dose 10 mg/kg, route oral. The note with it: in vivo, po, 48 h.
In another series the test system is Vero. Briefly: Cytotoxicity against african green monkey Vero cells by neutral red assay. Type of series: cell-based. The conditions noted are these: Chlorocebus sabaeus.
A short description of series [7]: Selectivity index, ratio of IC50 for african green monkey (Cercopithecus aethiops) Vero cells to IC50 for chloroquine-resistant Plasmodium falciparum W2. The note with it: read-out: Ratio IC50. Type of series: toxicity, cell-based.
The test system of series [8] is Mus musculus. Briefly: Toxicity in Plasmodium berghei infected mice (Mus musculus) assessed as dehydration at 10 mg/kg, perorally or subcutaneously QD on day 1. In kind it is organism-based. Set-up: dose 10 mg/kg, route oral. The conditions noted are these: in vivo, po.
In series [9] the test system is Mus musculus. Briefly: Toxicity in Plasmodium berghei infected mice (Mus musculus) assessed as reduction of movements at 10 mg/kg, perorally or subcutaneously QD on day 1. In kind it is organism-based. Set-up: dose 10 mg/kg, route oral. The note with it: in vivo, po.
Series [10] is described as follows: Selectivity index, ratio of IC50 for african green monkey (Cercopithecus aethiops) Vero cells to IC50 for chloroquine-sensitive Plasmodium falciparum D6. In kind it is toxicity, cell-based. The conditions noted are these: read-out: Ratio IC50.
Series [11] deals with Plasmodium falciparum. As to the kind of experiment: Antimalarial activity against chloroquine-sensitive Plasmodium falciparum D6 assessed as parasite LDH activity after 72 hrs by malstat reagent method. In kind it is functional, organism-based. The conditions noted are these: D6, 72 h.
For series [12], the system named is Mus musculus. Briefly: Toxicity in Plasmodium berghei infected mice (Mus musculus) at 10 mg/kg, perorally or subcutaneously administered 2 hrs post infection. Type of series: organism-based. Also on record: dose 10 mg/kg, route oral. The conditions noted are these: in vivo, po.
Series [13] in a line: Cytotoxicity against human HuH7 cells at 10 uM after 5 days by RT-PCR. In kind it is cell-based. The conditions noted are these: huh-7, 120 h.
In series [14] the test system is Mus musculus. As to the kind of experiment: Toxicity in Plasmodium berghei infected mice (Mus musculus) at 10 mg/kg, perorally or subcutaneously QD for 2 days measured on day 5. Also on record: dose 10 mg/kg, route oral. Type of series: organism-based. The note with it: in vivo, po, 48 h.
The test system of series [15] is Mus musculus. As to the kind of experiment: Toxicity in Plasmodium berghei infected mice (Mus musculus) at 10 mg/kg, perorally or subcutaneously QD for 2 days measured on day 2. In kind it is organism-based. Also on record: dose 10 mg/kg, route oral. The note with it: in vivo, po, 48 h.
Series [16] concerns Mus musculus. Briefly: Toxicity in Plasmodium berghei infected mice (Mus musculus) assessed as loss of weight at 10 mg/kg, perorally or subcutaneously QD for 2 days measured on day 5. The note with it: in vivo, po, 48 h. Set-up: dose 10 mg/kg, route oral. Type of series: organism-based.
In another series the test system is Plasmodium berghei. Briefly: Antimalarial activity against Plasmodium berghei infected in mice (Mus musculus) assessed as parasitaemia at 10 mg/kg, perorally or subcutaneously administered 2 hrs post infection daily for 2 days measured on day 5 by microscopy. The conditions noted are these: route oral. In kind it is functional.
The mark [17] stands for this setting: Mycobacterium intracellulare, 96 h.
[18] abbreviates: Mycobacterium intracellulare, 96 h, read-out: IC50.

≈ marks a conversion by molar mass, not a printed value. Calls of active or inactive are those of the source.

In [1] (setting [17]), `O=C(O)c1cn(C2CC2)c2cc(N3CCNCC3)c(F)cc2c1=O` [CIPROFLOXACIN] had an MIC of 1.5 µM (≈ 0.497 µg/mL). In the series on Staphylococcus aureus, the IC50 was 1100 nM and it took 3 µM (≈ 0.994 µg/mL) to inhibit growth (MIC).

Take `O=C1C2=C(C3=NCCc4c[nH]c1c43)C1(C=C(Br)C(O)C(Br)=C1)CCN2` (configuration not stated) [DIHYDRODISCORHABDIN C]: in the series with Hepatitis C virus, the EC90 is less than 10000 nM. Besides, the concentration for half-maximal inhibition (IC50) with Plasmodium falciparum [2] is 130 nM; in series [1], “Not Active”; with Vero, 9800 nM; in the series on Plasmodium falciparum [11], 170 nM; in the series on Staphylococcus aureus it was 13000 nM. Besides, the Activity result with Mus musculus [3] is “Toxic”; in the series on Mus musculus [4] it was “Toxic”; in the series on Mus musculus [6], “Toxic”; in the series with Mus musculus [8], “Toxic”; in the series on Mus musculus [9], “Toxic”; with Mus musculus [12], “Non-toxic”. Moreover, the result in series [13] was Active. In addition, in [1], the MIC entry is “inactive”. In [5], this molecule gave an MIC of 14 µM (≈ 6.51 µg/mL). In addition, the selectivity ratio in series [7] came out at 75; in series [10] it was 58.

As for `O=C1C(Br)=CC2(C=C1Br)CCNC1=C2C2=NCCc3c[nH]c(c32)C1=O` [DISCORHABDIN C], the EC90 in the series on Hepatitis C virus is less than 10000 nM. The 50% inhibitory concentration (IC50) in the series with Plasmodium falciparum [2] is 2000 nM; in [1] (setting [18]), 130 nM; in series [5], 6800 nM; in the series with Vero it was 2800 nM; in the series on Plasmodium falciparum [11], 2800 nM; in the series with Staphylococcus aureus, 3200 nM. Also, the minimal inhibitory concentration (MIC) worked out at 0.17 µM (≈ 0.0787 µg/mL) in [1] (setting [17]), 8 µM (≈ 3.71 µg/mL) in series [5] and 11 µM (≈ 5.09 µg/mL) with Staphylococcus aureus. Also, the results for the selectivity ratio in series [7] and in series [10] were 1.4 and 1, respectively. Besides, the outcome in series [13] was Active.

On to `O=C1C[C@H]2S[C@H]3C[C@]2(C=C1Br)C1=C(N3)C(=O)c2[nH]cc3c2C1=NCC3` [DISCORHABDINE A], for which the Activity result in the series with Mus musculus [14] is “Toxic”; in the series with Mus musculus [15], “Toxic”; in the series on Mus musculus [16] it was more than 25%; in the series on Plasmodium berghei, 6.6%; in the series with Mus musculus [12], “Non-toxic”; in series [13], “Active”. In addition, the EC90 in the series with Hepatitis C virus is less than 10000 nM. Further, the IC50 was 53 nM in the series on Plasmodium falciparum [2]; 360 nM in series [1] (setting [18]); 6800 nM in the series on Vero; 53 nM in the series on Plasmodium falciparum [11]; 4800 nM in the series with Staphylococcus aureus. The MIC worked out at 0.74 µM (≈ 0.308 µg/mL) in [1] (setting [17]), 7.7 µM (≈ 3.21 µg/mL) in series [5] and 12 µM (≈ 5 µg/mL) against Staphylococcus aureus. The selectivity ratio in series [7] and in series [10] was 130 in each case.

Take `NNC(=O)c1ccncc1` [ISONIAZID]: the MIC in [5] is 3.2 µM (≈ 0.439 µg/mL).

`CO[C@H]1/C=C/O[C@@]2(C)Oc3c(C)c(O)c4c(O)c(c(/C=N/N5CCN(C)CC5)c(O)c4c3C2=O)NC(=O)/C(C)=C\C=C\[C@H](C)[C@H](O)[C@@H](C)[C@@H](O)[C@@H](C)[C@H](OC(C)=O)[C@@H]1C` [RIFAMPIN] showed a minimal inhibitory concentration (MIC) in series [5] of 0.21 µM (≈ 0.173 µg/mL).

As usually defined, the MIC is the smallest concentration in the dilution series that meets the test's criterion for growth inhibition. As a reminder, the IC50 is the midpoint of a concentration-inhibition curve. For orientation: EC90 means the point of the concentration-response curve where the effect stands at 90%.
